Source: patent publication US6436966B1, “Adenosine A3 receptor antagonists” (Takeda Chemical Ind., Ltd., priority 1997, dated 2002)
Structures can show the parent of a compound that is named as a salt.

Tested on: not given
Assay: not given
Conditions: not given

| SMILES | melting point |
| --- | --- |
| COc1ccc(-c2nc(NC(C)=O)sc2-c2ccncc2)cc1 (as salt: HCl) [13-89] | 275 to 278 °C |
| CC(=O)Nc1nc(-c2ccncc2)c(-c2ccc(C(C)(C)C)cc2)s1 [Example Compound 5-1, N-[5-[4-(1,1-dimethylethyl)phenyl]-4-(4-pyridyl)-1,3-thiazol-2-yl]acetamide] | 245 to 246 °C |
| Cc1cc(C)cc(-c2sc(N)nc2-c2ccncc2)c1 [Example Compound 4-2, [5-(3,5-dimethylphenyl)-4-(4-pyridyl)-1,3-thiazol-2-yl]amine] | 262 to 263 °C |
| CC(=O)Nc1nc(-c2ccncc2)c(-c2cc(C)cc(C)c2)s1 [Example Compound 5-2, N-[5-(3,5-dimethylphenyl)-4-(4-pyridyl)-1,3-thiazol-2-yl]acetamide] | 304 to 308 °C |
| COc1ccc(-c2nc(NC(=O)C(C)C)sc2-c2cccnc2)cc1 [13-92] | 213 to 216 °C |
| CC(C)(C)c1ccc(-c2sc(N)nc2-c2ccncc2)cc1 [Example Compound 4-1, [5-[4-(1,1-dimethylethyl)phenyl]-4-(4-pyridyl)-1,3-thiazol-2-yl]amine] | 275 to 277 °C |

Molecular target: T1, human adenosine A3 receptor (Homo sapiens, UniProt P0DMS8)
T1 construct: expressed in transfected cells; membrane fraction used
T1 sequence (P0DMS8 1-318): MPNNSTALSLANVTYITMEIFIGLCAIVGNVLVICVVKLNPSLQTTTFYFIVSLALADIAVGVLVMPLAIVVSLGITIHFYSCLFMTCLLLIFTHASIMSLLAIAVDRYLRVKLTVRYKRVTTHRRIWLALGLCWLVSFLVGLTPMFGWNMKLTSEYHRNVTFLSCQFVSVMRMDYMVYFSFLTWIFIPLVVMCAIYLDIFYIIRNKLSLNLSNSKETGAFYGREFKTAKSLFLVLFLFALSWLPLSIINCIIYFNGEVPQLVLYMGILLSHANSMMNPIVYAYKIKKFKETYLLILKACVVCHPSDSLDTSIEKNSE
Assay: Binding assay with adenosine A3 receptor: [3H]-NECA binding to membranes of A3AR/CHO cells
Conditions: 10 nM [3H]-NECA, 100 μg/ml A3AR/CHO cell membranes, 1 hour at room temperature; read-out: IC50 (concentration that inhibits 50% specific binding of [3H]-NECA to the membrane)
Method: (1) Cloning of Human Adenosine A3 Receptor
Cloning of the human adenosine A3 receptor gene was carried out by the polymerase chain reaction (PCR) from human brain cDNA. Using 1 ng of brain cDNA (Quick-Clone cDNA, TOYOBO, Osaka) as template, PCR was performed in DNA Thermal Cycler 480 (Perkin Elmer, Foster, Calif.) (reaction conditions: 35 cycles of 1 min at 95° C., 1 min at 66° C., and 2 min at 75° C.) by mixing primers (50 pmol each), 5′-[…]-3′ [Sequence No. 1] and 5′-[…]-3′ [Sequence No. 2], which were designed referring to nucleotide sequence of adenosine A3 receptor gene reported by Salvatore et. al., (Proc. Natl. Acad. Sci. U.S.A., 90:10365-10369, 1993) and TaKaRa LA PCR Kit Ver.2 (TaKaRa Shuzo Co. Ltd., Kyoto) in a Thermal cycler 480 (Parkin Elmer). The PCR product was electrophoresed and 1.0 kb DNA fragment was recovered. The DNA fragment encoding adenosine A3 receptor was cloned using Original TA Cloning Kit (FUNAKOSHI, Tokyo).
(3) Transfection of Adenosine A3 Receptor Expression Plasmid into CHO (dhfr^−) and the Expression
CHO (dhfr^−) cells were grown on Ham's F-12 medium (Nihon Selyaku, Tokyo) supplement with 10% fetal bovine serum (Life Tech Oriental; Life Technologies, Inc., Rockville, Md., USA) in a 750 ml Tissue culture flask (Becton Dickinson, Mt. View, Calif.). The growing cells were treated with 0.5 g/l trypsin-0.2 g/l EDTA (Life Technologies, Inc., Rockville, Md., USA) to harvest, washed with PBS (Life Technologies, Inc., Rockville, Md., USA), centrifugated at 1000 rpm for 5 min, and suspended in PBS. […] The cells were incubated in assay buffer I (HBSS (Wako chemicals, Osaka) containing 0.1% BSA, 0.25 mM PMSF, 1 μg/ml pepstatin, and 20 μg/ml leupeptin) to which was added 50 pM ^125I-AB-MECA (Amersham) as ligand, for 1 hour, and washed with assay buffer I. The radioactivity associated with the:.cell was measured in a γ-counter to select A3AR/CHO cells which specifically bind to the ligand. […]

| SMILES | IC50 |
| --- | --- |
| COc1ccc(-c2nc(NC(C)=O)sc2-c2ccncc2)cc1 [13-89] | 0.55 nM |
| COc1ccc(-c2nc(NC(C)=O)sc2-c2cccnc2)cc1 [Reference Example Compound 10, N-[4-(4-Methoxyphenyl)-5-(3-pyridyl)-1,3-thiazol-2-yl]acetamide] | 0.27 nM |
| COc1ccc(-c2nc(NC(=O)C(C)C)sc2-c2cccnc2)cc1 [13-92] | 0.7 nM |
